Test results: patent US4015974A, “Amido phosphorothiolates” (priority 1972, dated 1977)
In brackets after ≈: the same amount, converted by molar mass.

Legend:
Type in all cases: in vivo
[1] = tested on: barnyard grass (Echinochloa crus-galli); experiment: Pre-emergence application, herbicidal effect on barnyard grass (Table 1); design: key: 0: not damaged; 5: completely killed; details: 20 days after application, score 0-5
Method in brief: (§1)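 Compounds, formulated as water-diluted wettable powder, were applied to the soil surface after sowing and covering the seeds in pots of about 10 cm. Effects were rated on a 0 (no damage) to 5 (complete kill) scale after 20 days of greenhouse growth.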

[2] = tested on: broad-leaved weeds, e.g., monochoria, false pimpernel and toothcup; experiment: Water application, herbicidal effect on broad-leaved weeds (Table 2); design: key: 0: not damaged; 5: completely killed; details: 25 days, score 0-5
Method in brief: (§2)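 Ratings on a 0–5 scale taken 25 days post-treatment for rice injury, barnyard grass, and naturally emerging monochoria, false pimpernel and toothcup. Compounds as wettable powder went onto waterlogged paddy soil holding rice seedlings transplanted at 3 leaves and barnyard grass seed.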

[3] = tested on: redroot pigweed (Amaranthus retroflexus); experiment: Pre-emergence application, herbicidal effect on redroot pigweed (Table 1); design: key: 0: not damaged; 5: completely killed; details: 20 days after application, score 0-5
Method in brief: as §1

[4] = tested on: carmine mite (Tetranychus telavius); experiment: Lethal effect on carmine mite, leaf dipping (Table 3); details: foliar, 48 h
Method: A large number of carmine mite adult were made parasitic on leaves of potted kidney beans at a 2-leaves stage which had elapsed 10 days after sowing. The leaves of kidney bean on which carmine mites had been made parasitic were dipped for 1 minute in each aqueous solution of the present compounds of wettable powder type. Water was given to the leaves not to kill them, and after 48 hours the death and alive were observed microscopically to calculate the mortality. Values of LC50 were obtained from the mortality.

[5] = tested on: rice stem borer (Chilo suppressalis); experiment: Lethal effect on rice stem borer (Table 6); details: 50 % emulsifiable concentrate, 1000 fold dilute solution, 4 days after application
Source text: Eggs just before hatch of the rice stem borer were applied in a ratio of 100/pot near the root of rice plants grown up into the tillering stage in an […] Wagner's pot. After eggs were hatched and the larvae entered into stems of rice plants, an 1000 fold dilute solution of each 50 % emulsifiable concentrates of the present compounds was applied by means of a turn table.

[6] = tested on: broad-leaved weeds, e.g., monochoria, false pimpernel and toothcup; experiment: Water application, herbicidal effect on broad-leaved weeds (Table 2); design: key: 0: no effect; 1: very slightly affected; 2: slightly affected; 3: moderately affected; 4: considerably affected; 5: completely killed; details: 10 g/a, 25 days, score 0-5
Source text: (§3) Wagner pots of 14 cm. in diameter, which had been packed with 1.5 kg. of paddy field soil, were brought into the state of paddy fields. To the pots were transplanted rice seedlings at the 3-leave stage. Further, seeds of barnyard grass (Echinochloa crus-galli) were sowed in the pots and required amounts of test compounds were applied to the soil under water lodged condition. 25 days after application, the degrees of herbicidal activity and phytotoxity were investigated on above-mentioned plants which had been transplanted and sowed, and on broad-leaved weeds, e.g., monochoria (Monochoria viaginalis Presl.), false pimpernel (Linderna pyxidaria) and toothcup (Rotala indica Koehue), which had been spontaneously germinated. The test compounds were used in the form of wettable powder. The herbicidal effects and the phytotoxity were evaluated as follows by the numerals ranging from 0 to 5.

[7] = tested on: large crabgrass (Digitaria sanguinalis); experiment: Pre-emergence application, herbicidal effect on large crabgrass (Table 1); design: key: 0: not damaged; 5: completely killed; details: 20 days after application, score 0-5
Method in brief: as §1

[8] = tested on: common lambsquarter (Chenopodium album); experiment: Pre-emergence application, herbicidal effect on common lambsquarter (Table 1); design: key: 0: not damaged; 5: completely killed; details: 20 days after application, score 0-5
Method in brief: as §1

nematode = experiment: Effect on nematode (Table 7); design: tested at 500 ppm; details: 500 p.p.m., 24 hours
Method: 0.5 ml. of a nematode-containing aqueous solution separated from food according to Baermann's method was placed in a test tube with ground stopper containing 0.5 ml. of an aqueous dilute solution of each emulsifiable concentrates of the present compounds. The concentration of the active ingredient in the mixture was adjusted to 500 p.p.m. After 24 hours, the death and alive were observed microscopically to calculate the mortality.

radish = experiment: Pre-emergence application, herbicidal effect on radish (Table 1); design: key: 0: not damaged; 5: completely killed; details: 20 days after application, score 0-5
Method in brief: as §1

[9] = tested on: common purslane (Portulaca oleracea); experiment: Pre-emergence application, herbicidal effect on common purslane (Table 1); design: key: 0: not damaged; 5: completely killed; details: 20 days after application, score 0-5
Method in brief: as §1

[10] = tested on: barnyard grass (Echinochloa crus-galli); experiment: Water application, herbicidal effect on barnyard grass (Table 2); design: key: 0: not damaged; 5: completely killed; details: 25 days, score 0-5
Method in brief: as §2

rice = experiment: Water application, phytotoxicity on rice (Table 2); design: key: 0: no effect; 1: very slightly affected; 2: slightly affected; 3: moderately affected; 4: considerably affected; 5: completely killed; details: 25 days, score 0-5
Method in brief: as §2

[11] = tested on: barnyard grass (Echinochloa crus-galli); experiment: Water application, herbicidal effect on barnyard grass (Table 2); design: key: 0: no effect; 1: very slightly affected; 2: slightly affected; 3: moderately affected; 4: considerably affected; 5: completely killed; details: 10 g/a, 25 days, score 0-5
Source text: as §3

Structure (SMILES): CCCCSP(=O)(OCC)SCC(=O)N1CCCCC1C (stereo not drawn) [Compound 4]
- Herbicidal effect, barnyard grass ([1]; 10 g./a.): 4
- Herbicidal effect, barnyard grass ([1]; 20 g./a.): 5
- Herbicidal effect, barnyard grass ([1]; 40 g./a.): 5
- Herbicidal effects, broad-leaved weeds ([2]; 20 g/a): 5
- Herbicidal effects, broad-leaved weeds ([2]; 40 g/a): 5
- Herbicidal effect, redroot pigweed ([3]; 10 g./a.): 4
- Herbicidal effect, redroot pigweed ([3]; 20 g./a.): 4
- Herbicidal effect, redroot pigweed ([3]; 40 g./a.): 4
- LC50 [4]: 11.4 µg/mL (≈ 32.2 µM)
- Mortality [5]: 97.6%
- Herbicidal effects, broad-leaved weeds [6]: 4
- Herbicidal effect, large crabgrass ([7]; 10 g./a.): 5
- Herbicidal effect, large crabgrass ([7]; 20 g./a.): 5
- Herbicidal effect, large crabgrass ([7]; 40 g./a.): 5
- Herbicidal effect, common lambsquarter ([8]; 10 g./a.): 4
- Herbicidal effect, common lambsquarter ([8]; 20 g./a.): 4
- Herbicidal effect, common lambsquarter ([8]; 40 g./a.): 5
- Mortality (nematode): 100%
- Herbicidal effect, radish (radish; 10 g./a.): 0
- Herbicidal effect, radish (radish; 20 g./a.): 0
- Herbicidal effect, radish (radish; 40 g./a.): 0
- Herbicidal effect, common purslane ([9]; 10 g./a.): 4
- Herbicidal effect, common purslane ([9]; 20 g./a.): 4
- Herbicidal effect, common purslane ([9]; 40 g./a.): 5
- Herbicidal effects, barnyard grass ([10]; 10 g/a): 5
- Herbicidal effects, barnyard grass ([10]; 20 g/a): 5
- Herbicidal effects, barnyard grass ([10]; 40 g/a): 5
- Phytotoxicity on rice (rice; 10 g/a): 0
- Phytotoxicity on rice (rice; 20 g/a): 0
- Phytotoxicity on rice (rice; 40 g/a): 0

Structure (SMILES): C=C(Cl)CSP(=O)(OCC)SCC(=O)N1CCCCC1C (stereo not drawn) [Compound 9]
- Herbicidal effect, barnyard grass ([1]; 10 g./a.): 5
- Herbicidal effect, barnyard grass ([1]; 20 g./a.): 5
- Herbicidal effect, barnyard grass ([1]; 40 g./a.): 5
- Herbicidal effects, broad-leaved weeds ([2]; 10 g/a): 5
- Herbicidal effects, broad-leaved weeds ([2]; 20 g/a): 5
- Herbicidal effects, broad-leaved weeds ([2]; 40 g/a): 5
- Herbicidal effect, redroot pigweed ([3]; 10 g./a.): 4
- Herbicidal effect, redroot pigweed ([3]; 20 g./a.): 5
- Herbicidal effect, redroot pigweed ([3]; 40 g./a.): 5
- Mortality [5]: 100%
- Herbicidal effect, large crabgrass ([7]; 10 g./a.): 5
- Herbicidal effect, large crabgrass ([7]; 20 g./a.): 5
- Herbicidal effect, large crabgrass ([7]; 40 g./a.): 5
- Herbicidal effect, common lambsquarter ([8]; 10 g./a.): 4
- Herbicidal effect, common lambsquarter ([8]; 20 g./a.): 5
- Herbicidal effect, common lambsquarter ([8]; 40 g./a.): 5
- Mortality (nematode): 100%
- Herbicidal effect, radish (radish; 10 g./a.): 0
- Herbicidal effect, radish (radish; 20 g./a.): 0
- Herbicidal effect, radish (radish; 40 g./a.): 0
- Herbicidal effect, common purslane ([9]; 10 g./a.): 5
- Herbicidal effect, common purslane ([9]; 20 g./a.): 5
- Herbicidal effect, common purslane ([9]; 40 g./a.): 5
- Herbicidal effects, barnyard grass ([10]; 10 g/a): 5
- Herbicidal effects, barnyard grass ([10]; 20 g/a): 5
- Herbicidal effects, barnyard grass ([10]; 40 g/a): 5
- Phytotoxicity on rice (rice; 10 g/a): 0
- Phytotoxicity on rice (rice; 20 g/a): 0
- Phytotoxicity on rice (rice; 40 g/a): 0

Structure (SMILES): CCCCSP(=O)(OCC)SCC(=O)N1CCC(C)CC1 (stereo not drawn) [Compound 24]
- Herbicidal effect, barnyard grass ([1]; 10 g./a.): 4
- Herbicidal effect, barnyard grass ([1]; 20 g./a.): 5
- Herbicidal effect, barnyard grass ([1]; 40 g./a.): 5
- Herbicidal effects, broad-leaved weeds ([2]; 20 g/a): 5
- Herbicidal effects, broad-leaved weeds ([2]; 40 g/a): 5
- Herbicidal effect, redroot pigweed ([3]; 10 g./a.): 3
- Herbicidal effect, redroot pigweed ([3]; 20 g./a.): 4
- Herbicidal effect, redroot pigweed ([3]; 40 g./a.): 4
- Mortality [5]: 83.0%
- Herbicidal effects, broad-leaved weeds [6]: 4
- Herbicidal effect, large crabgrass ([7]; 10 g./a.): 4
- Herbicidal effect, large crabgrass ([7]; 20 g./a.): 5
- Herbicidal effect, large crabgrass ([7]; 40 g./a.): 5
- Herbicidal effect, common lambsquarter ([8]; 10 g./a.): 3
- Herbicidal effect, common lambsquarter ([8]; 20 g./a.): 4
- Herbicidal effect, common lambsquarter ([8]; 40 g./a.): 4
- Herbicidal effect, radish (radish; 10 g./a.): 0
- Herbicidal effect, radish (radish; 20 g./a.): 0
- Herbicidal effect, radish (radish; 40 g./a.): 0
- Herbicidal effect, common purslane ([9]; 10 g./a.): 4
- Herbicidal effect, common purslane ([9]; 20 g./a.): 4
- Herbicidal effect, common purslane ([9]; 40 g./a.): 4
- Herbicidal effects, barnyard grass ([10]; 10 g/a): 5
- Herbicidal effects, barnyard grass ([10]; 20 g/a): 5
- Herbicidal effects, barnyard grass ([10]; 40 g/a): 5
- Phytotoxicity on rice (rice; 10 g/a): 0
- Phytotoxicity on rice (rice; 20 g/a): 0
- Phytotoxicity on rice (rice; 40 g/a): 0

Structure (SMILES): CCOP(=O)(SCCc1ccccc1)SCC(=O)N1CCCCC1C (stereo not drawn) [Compound 63]
- Herbicidal effect, barnyard grass ([1]; 10 g./a.): 5
- Herbicidal effect, barnyard grass ([1]; 20 g./a.): 5
- Herbicidal effect, barnyard grass ([1]; 40 g./a.): 5
- Herbicidal effects, broad-leaved weeds ([2]; 10 g/a): 5
- Herbicidal effects, broad-leaved weeds ([2]; 20 g/a): 5
- Herbicidal effects, broad-leaved weeds ([2]; 40 g/a): 5
- Herbicidal effect, redroot pigweed ([3]; 10 g./a.): 4
- Herbicidal effect, redroot pigweed ([3]; 20 g./a.): 5
- Herbicidal effect, redroot pigweed ([3]; 40 g./a.): 5
- Herbicidal effects, barnyard grass [11]: 4
- Herbicidal effect, large crabgrass ([7]; 10 g./a.): 4
- Herbicidal effect, large crabgrass ([7]; 20 g./a.): 5
- Herbicidal effect, large crabgrass ([7]; 40 g./a.): 5
- Herbicidal effect, common lambsquarter ([8]; 10 g./a.): 4
- Herbicidal effect, common lambsquarter ([8]; 20 g./a.): 4
- Herbicidal effect, common lambsquarter ([8]; 40 g./a.): 5
- Herbicidal effect, radish (radish; 10 g./a.): 0
- Herbicidal effect, radish (radish; 20 g./a.): 0
- Herbicidal effect, radish (radish; 40 g./a.): 0
- Herbicidal effect, common purslane ([9]; 10 g./a.): 4
- Herbicidal effect, common purslane ([9]; 20 g./a.): 5
- Herbicidal effect, common purslane ([9]; 40 g./a.): 5
- Herbicidal effects, barnyard grass ([10]; 20 g/a): 5
- Herbicidal effects, barnyard grass ([10]; 40 g/a): 5
- Phytotoxicity on rice (rice; 10 g/a): 0
- Phytotoxicity on rice (rice; 20 g/a): 0
- Phytotoxicity on rice (rice; 40 g/a): 0
